Experimental findings from patent US5922715A, “5-aminoalkoxy-1, 4-dihydroquinoxaline-2, 3-diones” (American Home Products Corporation, priority 1998, dated 1999) are described below.

A word on the IC50: it is the midpoint of a concentration-inhibition curve.

One assay deals with T1, dopamine D-2 receptor (Rattus norvegicus, UniProt P61169).
T1 construct: homogenized limbic brain tissue; from tissue; host or cells: limbic brain tissue, homogenized
Description: High affinity for the dopamine D-2 receptor: 3H-spiroperidol (Spiper.) binding, homogenized limbic brain tissue. The note with it: read-out: IC50 (nM) D2 Spiper. As for the experimental part:
High affinity for the dopamine D-2 receptor was established by the standard experimental test procedure of Fields, et al., Brain Res., 136, 578 (1977) and Yamamura et al., eds., Neurotranrutter Receptor Binding, Raven Press, N.Y. (1978) wherein homogenized limbic brain tissue is incubated with ^3 H-spiroperidol (Spiper.) and various concentrations of test compound, filtered and washed and shaken with Hydrofluor scintillation cocktail (National Diagnostics) and counted in a Packard 460 CD scintillation counter.

Assay [1] has as its target T2, dopamine D2 (dopamine autoreceptor) (Rattus norvegicus, UniProt P61169).
T2 construct: homogenized rat striatal brain tissue; from tissue; host or cells: rat striatal brain tissue, homogenized
The assay can be described thus: Affinity for the dopamine autoreceptor: 3H-quinpirole (Quin.) binding, homogenized rat striatal brain tissue. As for the experimental part:
Affinity for the dopamine autoreceptor was established by a modification of the standard experimental test procedure of Seamen and Schaus, European Journal of Pharmacology 203, 105-109, 1991, wherein homogenized rat striatal brain tissue is incubated with ^3 H-quinpirole (Quin.) and various concentrations of test compound, filtered and washed and counted in a Betaplate scintillation counter.

T2 sequence (P61169 whole entry): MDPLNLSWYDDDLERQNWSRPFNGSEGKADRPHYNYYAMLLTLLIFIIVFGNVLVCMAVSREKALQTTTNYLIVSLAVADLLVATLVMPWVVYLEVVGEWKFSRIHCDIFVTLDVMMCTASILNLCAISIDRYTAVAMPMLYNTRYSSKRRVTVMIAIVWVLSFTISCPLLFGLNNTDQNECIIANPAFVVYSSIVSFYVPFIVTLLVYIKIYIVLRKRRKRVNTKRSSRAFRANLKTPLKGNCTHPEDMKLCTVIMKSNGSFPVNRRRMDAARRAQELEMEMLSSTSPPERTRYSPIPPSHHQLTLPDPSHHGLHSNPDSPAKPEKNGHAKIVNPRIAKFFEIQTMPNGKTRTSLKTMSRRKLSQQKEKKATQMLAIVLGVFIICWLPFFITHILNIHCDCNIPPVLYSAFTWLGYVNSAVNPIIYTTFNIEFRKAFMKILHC
T1 sequence (P61169 whole entry): as above

Take `O=c1[nH]c2cccc(OCCNCc3ccccc3)c2[nH]c1=O` [Example 1, 5-(2-Benzylamino-ethoxy)-1,4-dihydro-quinoxaline-2,3-dione]: the half-maximal inhibitory concentration (IC50) came out at 2190 nM at dopamine D-2 receptor and 20.8 nM in assay [1].

With `O=c1[nH]c2cccc(OCCNCc3ccc(Cl)cc3)c2[nH]c1=O` [Example 2, 5-[2-(4-Chloro-benzylamino)-ethoxy]-1,4-dihydro-quinoxaline-2,3-dione], the IC50 in assay [1] was 64.6 nM.
